Measured values: US9510598B2, “Nitrogen-containing heterocyclic compounds for plant disease control” (BAYER CROPSCIENCE AG, priority 2012, dated 2016)
Like-named read-outs stand apart in the source and are kept apart here.

What was measured:
physchem = conditions: pH 2.7
Method: Measurement of log P values was performed according EEC directive 79/831 Annex V.A8 by HPLC (High Performance Liquid Chromatography) on reversed phase columns with the following methods: ^[a]

[1] = format: physicochemical; conditions: pH 2.7

## COC(=O)C1(C)CC(c2ccc3ncc(Cl)cc3c2)=NO1 (centres unmarked) [II-23, methyl 3-(3-chloroquinolin-6-yl)-5-methyl-4,5-dihydro-1,2-oxazole-5-carboxylate]
physchem
  chromatographic logP: 2.58
[1]
  chromatographic logP: 2.58
